From patent US20160095843A1, “PYRAZOLOPYRROLIDINE DERIVATIVES AND THEIR USE IN THE TREATMENT OF DISEASE” (NOVARTIS AG, priority 2013, published 2016) come the findings set out here.

The test system of one experiment is K-562 cells. The experiment is described as follows: Cell growth inhibition assay (CellTiter-Glo), K-562. The format is cell-based, human. The settings on record: for GI50: Homo sapiens, K562. Here is the method: (§1) Cell Growth Inhibition Assay
(§2) The human leukemia cell lines MV-4-11, THP-1 and K-562 were employed to characterize the effect of BET inhibitors on cellular proliferation and viability. Cells were obtained from the American Type Culture Collection (ATCC) and cultured at 37° C. in a humidified 5% CO2 incubator in the following media: MV-4-11: DMEM high glucose (Animed #1-26F01-I), 10% FCS (Animed #2-01F26-I), 4 mM L-Glutamine (Animed #5-10K50), 1 mM Sodium Pyruvate (Animed # G03625P), 1× Penicillin-Streptomycin (Animed # F12478P); K-562: Iscove's MEM (Animed #1-28F16-I), 10% FCS (Animed #2-01F26-I), 4 mM L-Glutamine (Animed #5-10K50), 1× Penicillin-Streptomycin (Animed # F12478P); THP-1: RPMI-1640 (Animed #1-41F01-I), 10% FCS (Animed #2-01F26-I), 2 mM L-Glutamine (Animed #5-10K50), 10 mM HEPES (Animed #5-31F100), 1 mM Sodium Pyruvate (Animed # G03625P), 1× Penicillin-Streptomycin (Animed # F12478P). The AML lines MV-4-11 and THP-1 are very sensitive to BET inhibitors and show massive cell death upon BET inhibition (Zuber et al., Nature, 478 (2011), 524-8). Compound-mediated suppression of cell proliferation/viability was assessed by quantification of cellular ATP levels using the CellTiter-Glo (CTG) reagent (Promega). Briefly, cells were seeded in 20 μl fresh medium into 384-well plates, followed by addition of 5 μL medium containing compound dilutions at 5-fold their final intended concentration. Dose-response effects were assessed by 3-fold serial dilutions of the test compound, starting at 10 μM. Following incubation of the cells for 4 days at 37° C. and 5% CO2, the effect of inhibitors on cell viability was quantified following addition of 20 μl CTG and luminescence quantification (integration time: 100 ms) as per vendor manual, using a correspondingly equipped Tecan M200 multi-mode platereader (TECAN, Switzerland). For data analysis, the assay background value determined in wells containing medium, but no cells, was subtracted from all data points. To enable differentiation of cytotoxic from cytostatic compounds, the number of viable cells is assessed relative to that observed at the time of compound addition using a separate cell plate (day 0). The effect of a particular test compound concentration on cell proliferation/viability is expressed as percentage of the background- and day 0-corrected luminescence reading obtained for cells treated with vehicle only (DMSO, 0.1% final concentration), which is set as 100%, whereas that luminescence reading for wells containing medium is set as −100%. Compound concentrations leading to half-maximal (1050) and total growth inhibition (TGI) were determined using standard four parameter curve fitting.
(In general: Cellular ATP, detected with luciferase, serves as a proxy for viable cell number.)

In a further experiment the test system is THP-1 cells. The experiment is described as follows: Cell growth inhibition assay (CellTiter-Glo), THP-1. It is filed as cell-based. The settings on record: Homo sapiens. Here is the method: as §1, §2
In another experiment the test system is MV-4-11 cells. The experiment in a line: Cell growth inhibition assay (CellTiter-Glo), MV-4-11. The format is cell-based. The settings on record: Homo sapiens, MV4-11. As for the experimental part:
as §1, §2

Consider `Cc1cc(N2C(=O)c3c(c(C4CC4)nn3-c3ccnn3C)C2c2ccc(Cl)cc2)cn2c(C)nnc12` (stereo not shown) [Example 117, 4-(4-chlorophenyl)-3-cyclopropyl-5-(3,8-dimethyl-[1,2,4]triazolo[4,3-a]pyridin-6-yl)-1-(1-methyl-1H-pyrazol-5-yl)-4,5-dihydropyrrolo-[3,4-c]pyrazol-6(1H)-one], for which the GI50 came to 150 nM in the experiment with K-562 cells, 31.8 nM in the experiment with THP-1 cells and 18.6 nM in the experiment with MV-4-11 cells.

For `COc1nccc(-n2nc(C)c3c2C(=O)N(c2cc(C)c(=O)n(C)c2)C3c2ccc(Cl)cc2)n1` (stereo not shown) [Example 59, 4-(4-chlorophenyl)-5-(1,5-dimethyl-6-oxo-1,6-dihydropyridin-3-yl)-1-(2-methoxypyrimidin-4-yl)-3-methyl-4,5-dihydropyrrolo[3,4-c]pyrazol-6(1H)-one], the GI50 in the experiment with K-562 cells worked out at 1250 nM; in the experiment on THP-1 cells, 317 nM; with MV-4-11 cells, 220 nM.

In the case of `Cc1c2c(nn1C)C(=O)N(c1cc(Cl)c(=O)n(C)c1)[C@@H]2c1ccc(Cl)cc1` [Example 7, (R)-5-(5-chloro-1-methyl-6-oxo-1,6-dihydropyridin-3-yl)-4-(4-chlorophenyl)-2,3-dimethyl-4,5-dihydropyrrolo-[3,4-c]pyrazol-6(2H)-one], the figures for the GI50 with K-562 cells, in the experiment with THP-1 cells and with MV-4-11 cells were 632 nM, 103 nM and 71.1 nM, respectively.

On to `COc1ccccc1-n1nc(C)c2c1C(=O)N(c1cc(C)c3nnc(C)n3c1)C2c1ccc(F)cc1F` (stereo not shown) [Example 177, 4-(2,4-difluorophenyl)-5-(3,8-dimethyl-[1,2,4]triazolo[4,3-a]pyridin-6-yl)-1-(2-methoxyphenyl)-3-methyl-4,5-dihydropyrrolo-[3,4-c]pyrazol-6(1H)-one], for which the GI50 in the experiment with K-562 cells worked out at 331 nM; in the experiment with THP-1 cells it was 64.4 nM; with MV-4-11 cells, 67.5 nM.

Turning to `Cc1cc(N2C(=O)c3nn(C4CNC4)c(C)c3C2c2ccc(Cl)cc2)cn2c(C)nnc12` (stereo not shown) [Example 152, 2-(azetidin-3-yl)-4-(4-chlorophenyl)-5-(3,8-dimethyl-[1,2,4]triazolo[4,3-a]pyridin-6-yl)-3-methyl-4,5-dihydropyrrolo[3,4-c]pyrazol-6(2H)-one], the 50% growth inhibitory concentration (GI50) in the experiment with K-562 cells is 4330 nM; with THP-1 cells it was 2600 nM; in the experiment with MV-4-11 cells, 438 nM.

With `Cc1cc(N2C(=O)c3nn(C4COC4)c(C)c3C2c2ccc(Cl)cc2)cn2c(C)nnc12` (stereo not shown) [Example 136, 4-(4-chlorophenyl)-5-(3,8-dimethyl-[1,2,4]triazolo[4,3-a]pyridin-6-yl)-3-methyl-2-(oxetan-3-yl)-4,5-dihydropyrrolo-[3,4-c]pyrazol-6(2H)-one], the GI50 with K-562 cells was found to be 335 nM; with THP-1 cells, 80.2 nM; in the experiment with MV-4-11 cells, 28.2 nM.

As for `Cn1cc(N2C(=O)c3c(c(C(F)(F)F)nn3C3CC3)C2c2ccc(Cl)cc2)cc(Cl)c1=O` (stereo not shown) [Example 44, 5-(5-chloro-1-methyl-6-oxo-1,6-dihydropyridin-3-yl)-4-(4-chlorophenyl)-1-cyclopropyl-3-(trifluoromethyl)-4,5-dihydropyrrolo[3,4-c]pyrazol-6(1H)-one], the GI50 in the experiment with K-562 cells stood at 658 nM; in the experiment on THP-1 cells, 308 nM; with MV-4-11 cells, 217 nM.

For `COc1ncccc1-n1nc(C)c2c1C(=O)N(c1cc(C)c3nnn(C)c3n1)C2c1ccc(Cl)cc1` (stereo not shown) [Example 109, 4-(4-chlorophenyl)-5-(3,7-dimethyl-3H-[1,2,3]triazolo[4,5-b]pyridin-5-yl)-1-(2-methoxypyridin-3-yl)-3-methyl-4,5-dihydropyrrolo-[3,4-c]pyrazol-6(1H)-one], the GI50 in the experiment on K-562 cells is 269 nM; with THP-1 cells, 39.8 nM; in the experiment with MV-4-11 cells it was 18.6 nM.

As for `Cc1nn(C(C)C)c2c1[C@@H](c1ccc(Cl)cc1)N(c1cc(C)c(=O)n(C)c1)C2=O` [Example 104, (R)-4-(4-chlorophenyl)-5-(1,5-dimethyl-6-oxo-1,6-dihydropyridin-3-yl)-1-isopropyl-3-methyl-4,5-dihydropyrrolo[3,4-c]pyrazol-6(1H)-one], the IC (TGI) in the experiment on K-562 cells was >10000 nM. The values for the GI50 with K-562 cells, in the experiment on THP-1 cells and in the experiment with MV-4-11 cells were 57.6 nM, 26.2 nM and 9.97 nM, respectively.

Turning to `CCc1nn(CCOCC(F)(F)F)c2c1C(c1ccc(Cl)cc1)N(c1cc(OC)c3nnc(C)n3c1)C2=O` (stereo not shown) [Example 108, 4-(4-chlorophenyl)-3-ethyl-5-(8-methoxy-3-methyl-[1,2,4]triazolo[4,3-a]pyridin-6-yl)-1-(2-(2,2,2-trifluoroethoxy)ethyl)-4,5-dihydropyrrolo[3,4-c]pyrazol-6(1H)-one], the GI50 was 1510 nM in the experiment on K-562 cells, 397 nM in the experiment with THP-1 cells and 267 nM in the experiment on MV-4-11 cells.

Regarding `Cc1n[nH]c2c1C(c1ccc(Cl)cc1F)N(c1cc(C)c3nnc(C)n3c1)C2=O` (stereo not shown) [Example 183, 4-(4-chloro-2-fluorophenyl)-5-(3,8-dimethyl-[1,2,4]triazolo[4,3-a]pyridin-6-yl)-3-methyl-4,5-dihydropyrrolo-[3,4-c]pyrazol-6(2H)-one], the GI50 was 659 nM with K-562 cells, 135 nM with THP-1 cells and 76.1 nM in the experiment with MV-4-11 cells.

As to `Cc1nn(C2CC2)c2c1[C@@H](c1ccc(Cl)cc1)N(c1cc(C)c(=O)n(C)c1)C2=O` [Example 49, (R)-4-(4-chlorophenyl)-1-cyclopropyl-5-(1,5-dimethyl-6-oxo-1,6-dihydropyridin-3-yl)-3-methyl-4,5-dihydropyrrolo-[3,4-c]pyrazol-6(1H)-one], the GI50 with K-562 cells worked out at 120 nM; with THP-1 cells it was 29 nM; in the experiment with MV-4-11 cells it was 24.1 nM.

Consider `COc1ncc(-n2nc(C)c3c2C(=O)N(c2cc(C)c(=O)n(C)c2)[C@@H]3c2ccc(Cl)cc2)c(OC)n1` [Example 100, (R)-4-(4-chlorophenyl)-1-(2,4-dimethoxypyrimidin-5-yl)-5-(1,5-dimethyl-6-oxo-1,6-dihydropyridin-3-yl)-3-methyl-4,5-dihydropyrrolo[3,4-c]pyrazol-6(1H)-one], for which the GI50 with K-562 cells stood at 264 nM; in the experiment with THP-1 cells it was 88 nM; in the experiment on MV-4-11 cells, 40.5 nM.

Consider `Cc1cc(N2C(=O)c3nn(C(C)C)c(C)c3C2c2ccc(Cl)cc2)cn(C)c1=O` (stereo not shown) [Example 64, 4-(4-chlorophenyl)-5-(1,5-dimethyl-6-oxo-1,6-dihydropyridin-3-yl)-2-isopropyl-3-methyl-4,5-dihydropyrrolo-[3,4-c]pyrazol-6(2H)-one], for which the GI50 with K-562 cells is 292 nM; with THP-1 cells, 64.8 nM; in the experiment on MV-4-11 cells it was 27.6 nM.

With `CCn1nc2c(c1C)C(c1ccc(Cl)cc1F)N(c1cc(C)c(=O)n(C)c1)C2=O` (stereo not shown) [Example 171, 4-(4-chloro-2-fluorophenyl)-5-(1,5-dimethyl-6-oxo-1,6-dihydropyridin-3-yl)-2-ethyl-3-methyl-4,5-dihydropyrrolo[3,4-c]pyrazol-6(2H)-one], the concentration for 50% growth inhibition (GI50) in the experiment with K-562 cells turned out to be 442 nM; in the experiment with THP-1 cells it was 118 nM; with MV-4-11 cells, 93.8 nM.

Take `CCc1c2c(nn1CCO)C(=O)N(c1cc(C)c3onc(C)c3c1)C2c1ccc(Cl)cc1` (stereo not shown) [Example 80, 4-(4-chlorophenyl)-5-(3,7-dimethylbenzo[d]isoxazol-5-yl)-3-ethyl-2-(2-hydroxyethyl)-4,5-dihydropyrrolo[3,4-c]pyrazol-6(2H)-one]: the GI50 was determined as 868 nM with K-562 cells, 354 nM in the experiment with THP-1 cells and 356 nM with MV-4-11 cells.

For `CCc1c2c(nn1C1CC1)C(=O)N(c1cc(C)c(=O)n(C)c1)C2c1ccc(Cl)cc1` (stereo not shown) [Example 68, 4-(4-chlorophenyl)-2-cyclopropyl-5-(1,5-dimethyl-6-oxo-1,6-dihydropyridin-3-yl)-3-ethyl-4,5-dihydropyrrolo-[3,4-c]pyrazol-6(2H)-one], the GI50 worked out at 157 nM with K-562 cells, 47.7 nM in the experiment with THP-1 cells and 30.1 nM in the experiment with MV-4-11 cells.

`Cc1nn(C2CCC2)c2c1C(c1ccc(Cl)cc1)N(c1cc(C)c(=O)n(C)c1)C2=O` (stereo not shown) [Example 94, 4-(4-chlorophenyl)-1-cyclobutyl-5-(1,5-dimethyl-6-oxo-1,6-dihydropyridin-3-yl)-3-methyl-4,5-dihydropyrrolo-[3,4-c]pyrazol-6(1H)-one]: the 50% growth inhibitory concentration (GI50) in the experiment with K-562 cells worked out at 96.9 nM; in the experiment with THP-1 cells, 34.4 nM; with MV-4-11 cells, 19.5 nM.

The GI50 is the concentration at which growth is held to half of that of the control. Read a high GI50 as less potent growth inhibition.
